Assay results reported in PubChem BioAssay AID330 (DTP/NCI, 2004).
“And” between values parts separate entries of the source, which are not always exact repeats. Identical values can stand only once. Inconclusive results and toxic doses are left out.

System: P388 leukemia ip, CD2F1 mice, survival T/C
Assay: NCI In Vivo Anticancer Drug Screen. Data for tumor model P388 Leukemia (intraperitoneal) in CD2F1 (CDF1) mice
Details: endpoint: median survival time, higher = longer survival
In short: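 Mice carrying the transplanted tumor received test compound or vehicle. Survival was recorded in each group, and the value is the treated-group measurement divided by that of the vehicle-treated control group.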

[1] = dose: 12.5 mg/kg/injection, schedule: Q01DX009 (ip), vehicle: saline with Tween-80
[2] = dose: 25.0 mg/kg/injection, schedule: Q01DX009 (ip), vehicle: saline with Tween-80
[3] = dose: 50.0 mg/kg/injection, schedule: Q01DX009 (ip), vehicle: saline with Tween-80
[4] = dose: 6.25 mg/kg/injection, schedule: Q01DX009 (ip), vehicle: saline
[5] = dose: 12.5 mg/kg/injection, schedule: Q01DX009 (ip), vehicle: saline
[6] = dose: 25.0 mg/kg/injection, schedule: Q01DX009 (ip), vehicle: saline
[7] = dose: 50.0 mg/kg/injection, schedule: Q01DX009 (ip), vehicle: saline
[8] = dose: 100.0 mg/kg/injection, schedule: Q04DX003 (ip), vehicle: Klucel (hydroxypropylcellulose) (HPC)
[9] = dose: 200.0 mg/kg/injection, schedule: Q04DX003 (ip), vehicle: Klucel (hydroxypropylcellulose) (HPC)

Nc1nnc2cccc(Cl)n12
T/C (dose: 100.0 mg/kg/injection, schedule: Q01DX001 (ip), vehicle: Klucel (hydroxypropylcellulose) (HPC)): 98 % of control | T/C (dose: 200.0 mg/kg/injection, schedule: Q01DX001 (ip), vehicle: Klucel (hydroxypropylcellulose) (HPC)): 96 % of control | T/C (dose: 400.0 mg/kg/injection, schedule: Q01DX001 (ip), vehicle: Klucel (hydroxypropylcellulose) (HPC)): 99 % of control

CSc1ncnc2c1cnn2C1OC(CO)C(O)C1O (configuration not stated)
T/C (dose: 6.25 mg/kg/injection, schedule: Q01DX009 (ip), vehicle: saline with Tween-80): 104 % of control | T/C [1]: 98 % of control | T/C [2]: 116 % of control | T/C [3]: 100 % of control

C=Cn1c([N+](=O)[O-])cnc1/C=C/c1ccc(C(=O)N(CCCC)CCCC)cc1
T/C (dose: 100.0 mg/kg/injection, schedule: Q04DX002 (ip), vehicle: saline with Tween-80): 100 % of control | T/C (dose: 200.0 mg/kg/injection, schedule: Q04DX002 (ip), vehicle: saline with Tween-80): 100 % of control | T/C (dose: 400.0 mg/kg/injection, schedule: Q04DX002 (ip), vehicle: saline with Tween-80): 89 % of control

C#CCOc1ccc(Cl)cc1[N+](=O)[O-]
T/C (dose: 50.0 mg/kg/injection, schedule: Q01DX009 (ip), vehicle: Klucel (hydroxypropylcellulose) (HPC)): 100 % of control | T/C (dose: 100.0 mg/kg/injection, schedule: Q01DX009 (ip), vehicle: Klucel (hydroxypropylcellulose) (HPC)): 99 % of control | T/C (dose: 200.0 mg/kg/injection, schedule: Q01DX009 (ip), vehicle: Klucel (hydroxypropylcellulose) (HPC)): 104 % of control

CC1(C)N=C(N)N=C(N)N1c1ccc(CCC(=O)Nc2ccc(S(=O)(=O)F)cc2)c(Cl)c1
T/C [4]: 157 % of control | T/C [1]: 187 % of control | T/C [5]: 200 % of control | T/C [2]: 170 % of control | T/C [6]: 209 % of control | T/C [3]: 91 % of control | T/C [7]: 190 % of control | T/C (dose: 100.0 mg/kg/injection, schedule: Q04DX003 (ip), vehicle: saline with Tween-80): 170 % of control | T/C (dose: 132.0 mg/kg/injection, schedule: Q04DX003 (ip), vehicle: saline with Tween-80): 100 % of control | T/C (dose: 200.0 mg/kg/injection, schedule: Q04DX003 (ip), vehicle: saline with Tween-80): 162 % of control and 190 % of control | T/C (dose: 400.0 mg/kg/injection, schedule: Q04DX003 (ip), vehicle: saline with Tween-80): 95 % of control

NCC=C1C2CC3CC(C2)CC1C3
T/C [4]: 105 % of control and 107 % of control and 120 % of control | T/C [5]: 107 % of control (2×) and 117 % of control | T/C [6]: 111 % of control and 94 % of control | T/C [7]: 103 % of control

COc1cc(NCC2COc3c(ccc(OC)c3OC)C2=O)c([N+](=O)[O-])cc1OC (configuration not stated)
T/C (dose: 60.0 mg/kg/injection, schedule: Q01DX005 (ip), vehicle: Klucel (hydroxypropylcellulose) (HPC)): 90 % of control | T/C (dose: 120.0 mg/kg/injection, schedule: Q01DX005 (ip), vehicle: Klucel (hydroxypropylcellulose) (HPC)): 92 % of control | T/C (dose: 240.0 mg/kg/injection, schedule: Q01DX005 (ip), vehicle: Klucel (hydroxypropylcellulose) (HPC)): 86 % of control

CC(=O)N(C(C)=O)N(C(C)=O)c1cc2ccccc2cn1
T/C (dose: 50.0 mg/kg/injection, schedule: Q01DX005 (ip), vehicle: saline with Tween-80): 88 % of control | T/C (dose: 100.0 mg/kg/injection, schedule: Q01DX005 (ip), vehicle: saline with Tween-80): 91 % of control

COc1ccc2c(n1)c(=NCCCCCCN=c1c3ccc(Cl)cc3n(O)c3ccc(OC)nc13)c1ccc(Cl)cc1n2O
T/C [8]: 116 % of control | T/C [9]: 100 % of control

Oc1cccc(Nc2ccccc2)c1
T/C (dose: 50.0 mg/kg/injection, schedule: Q01DX009 (ip), vehicle: olive oil, sesame oil, peanut oil): 108 % of control | T/C (dose: 100.0 mg/kg/injection, schedule: Q01DX009 (ip), vehicle: olive oil, sesame oil, peanut oil): 103 % of control | T/C (dose: 200.0 mg/kg/injection, schedule: Q01DX009 (ip), vehicle: olive oil, sesame oil, peanut oil): 111 % of control

CC(N=c1cc2n(-c3ccc(Cl)cc3)c3ccccc3nc-2cc1Nc1ccc(Cl)cc1)c1ccccc1 (configuration not stated)
T/C (dose: 1.87 mg/kg/injection, schedule: Q01DX005 (ip), vehicle: saline with Tween-80): 98 % of control | T/C (dose: 3.75 mg/kg/injection, schedule: Q01DX005 (ip), vehicle: saline with Tween-80): 101 % of control | T/C (dose: 7.5 mg/kg/injection, schedule: Q01DX005 (ip), vehicle: saline with Tween-80): 104 % of control and 86 % of control | T/C (dose: 240.0 mg/kg/injection, schedule: Q01DX005 (ip), vehicle: saline with Tween-80): 88 % of control

CC1OC(C)C(O)C2=C1C(=O)c1ccccc1C2=O (configuration not stated)
T/C (dose: 60.0 mg/kg/injection, schedule: Q01DX005 (ip), vehicle: saline with Tween-80): 100 % of control | T/C (dose: 120.0 mg/kg/injection, schedule: Q01DX005 (ip), vehicle: saline with Tween-80): 100 % of control

COc1ccc(/C=C2/C/C(=C/c3ccc(OC)cc3)C2=O)cc1
T/C [8]: 95 % of control | T/C [9]: 103 % of control | T/C (dose: 400.0 mg/kg/injection, schedule: Q04DX003 (ip), vehicle: Klucel (hydroxypropylcellulose) (HPC)): 97 % of control
